Measurements published in patent US20080009418A1, “Selective Inhibitors” (Alchemia LTD., priority 2004, published 2008).

Tests used:
[1] = target: T1, Human neuropeptide Y (NPY-Y1) (Homo sapiens, UniProt P25929); test: Radioligand binding, human neuropeptide Y NPY-Y1 membranes, FlashPlate, [125I]-PYY; settings: compound at 10 μM, [125I]-PYY
T1 construct: purchased Perkin Elmer Biosignal
T1 sequence (P25929 1-384): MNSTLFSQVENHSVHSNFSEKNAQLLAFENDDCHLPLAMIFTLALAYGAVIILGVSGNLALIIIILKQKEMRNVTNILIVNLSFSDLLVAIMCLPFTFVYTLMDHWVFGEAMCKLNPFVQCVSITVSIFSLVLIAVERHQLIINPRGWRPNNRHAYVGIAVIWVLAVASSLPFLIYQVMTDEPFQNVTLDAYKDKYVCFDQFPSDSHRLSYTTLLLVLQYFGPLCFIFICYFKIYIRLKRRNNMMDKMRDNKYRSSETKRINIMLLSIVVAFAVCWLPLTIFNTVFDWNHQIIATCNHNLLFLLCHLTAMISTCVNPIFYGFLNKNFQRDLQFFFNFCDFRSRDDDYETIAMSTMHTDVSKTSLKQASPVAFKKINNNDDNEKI
How it was run: (§1)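 Cloned human receptor membranes were coated onto FlashPlate wells and incubated with radioligand and compound (added from a 0.5 mM DMSO daughter plate) for 1 hour at room temperature in the dark. Scintillation counting gave percent inhibition, with DMSO defining total and reference ligand defining non-specific binding.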

Mouse urotensin (mUR2) = target: T2, Mouse urotensin (mUR2) (Mus musculus, UniProt Q8VIH9); test: Radioligand binding, mouse urotensin mUR2 membranes, FlashPlate, [125I]-Urotensin II; settings: compound at 10 μM, [125I]-Urotensin II
T2 construct: purchased Perkin Elmer Biosignal
T2 sequence (Q8VIH9 1-385): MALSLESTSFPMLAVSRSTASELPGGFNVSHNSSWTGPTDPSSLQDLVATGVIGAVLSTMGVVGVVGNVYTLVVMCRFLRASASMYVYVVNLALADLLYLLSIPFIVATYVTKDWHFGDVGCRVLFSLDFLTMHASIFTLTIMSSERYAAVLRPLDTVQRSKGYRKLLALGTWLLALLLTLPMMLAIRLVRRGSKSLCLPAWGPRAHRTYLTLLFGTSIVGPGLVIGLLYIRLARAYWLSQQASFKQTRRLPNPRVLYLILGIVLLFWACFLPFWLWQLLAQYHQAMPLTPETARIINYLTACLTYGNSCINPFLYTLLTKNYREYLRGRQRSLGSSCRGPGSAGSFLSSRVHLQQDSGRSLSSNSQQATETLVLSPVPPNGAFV
How it was run: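 Cloned mouse urotensin (mUR2) receptor membranes from Perkin Elmer Biosignal were immobilized in FlashPlate microplates using a proprietary coating. Each well got 19.5 μl buffer, then 0.5 μl of DMSO, reference ligand, or compound. Adding 5 μl of [125I]-Urotensin II, diluted to 5× final concentration in binding buffer, started binding. Plates were sealed with TopSeal-A and incubated 1 hour at room temperature in the dark. Wells were counted for 30 seconds each on a TopCount after a 60-second delay, and percentage inhibition was calculated.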

[2] = target: T3, Human melanin-concentrating hormone (MCH1) (Homo sapiens, UniProt Q99705); test: Radioligand binding, human melanin-concentrating hormone MCH1 membranes, FlashPlate, [125I]-S36057; settings: compound at 10 μM; for A6: inhibition of radioligand binding, human melanin-concentrating hormone (MCH1): [125I]-S36057
T3 construct: purchased Perkin Elmer Biosignal
T3 sequence (Q99705 whole entry): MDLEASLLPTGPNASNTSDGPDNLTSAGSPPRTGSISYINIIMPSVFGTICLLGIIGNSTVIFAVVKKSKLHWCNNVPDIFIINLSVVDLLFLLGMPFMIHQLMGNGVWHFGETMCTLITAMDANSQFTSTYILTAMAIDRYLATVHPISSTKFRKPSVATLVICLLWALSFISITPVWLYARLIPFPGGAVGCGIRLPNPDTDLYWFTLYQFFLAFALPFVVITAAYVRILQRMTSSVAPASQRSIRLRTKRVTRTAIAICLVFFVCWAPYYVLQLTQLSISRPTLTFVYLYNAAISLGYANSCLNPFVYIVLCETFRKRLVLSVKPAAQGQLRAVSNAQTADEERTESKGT
How it was run: as §1

Human Melanocortin (MC4) = target: T4, Human Melanocortin (MC4) (Homo sapiens, UniProt P32245); test: Radioligand binding, human melanocortin MC4 membranes, FlashPlate, [125I]-NDP-αMSH; settings: compound at 10 μM, [125I]-NDP-αMSH
T4 construct: purchased Perkin Elmer Biosignal
T4 sequence (P32245 whole entry): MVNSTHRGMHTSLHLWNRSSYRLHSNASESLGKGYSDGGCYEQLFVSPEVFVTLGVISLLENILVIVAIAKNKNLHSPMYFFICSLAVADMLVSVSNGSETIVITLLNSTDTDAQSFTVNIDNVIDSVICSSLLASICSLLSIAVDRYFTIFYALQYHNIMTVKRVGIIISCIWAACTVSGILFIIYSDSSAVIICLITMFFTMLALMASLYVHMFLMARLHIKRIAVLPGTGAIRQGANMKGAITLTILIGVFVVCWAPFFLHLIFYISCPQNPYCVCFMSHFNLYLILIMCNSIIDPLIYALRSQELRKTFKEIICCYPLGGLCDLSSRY
How it was run: as §1

Human μ-opioid (MOP) = target: T5, Human μ-opioid (MOP) (Homo sapiens, UniProt P35372); test: Radioligand binding, human μ-opioid (MOP) membranes, FlashPlate, [3H]-Naloxone; settings: compound at 10 μM, [3H]-Naloxone
T5 construct: purchased Perkin Elmer Biosignal
T5 sequence (P35372 whole entry): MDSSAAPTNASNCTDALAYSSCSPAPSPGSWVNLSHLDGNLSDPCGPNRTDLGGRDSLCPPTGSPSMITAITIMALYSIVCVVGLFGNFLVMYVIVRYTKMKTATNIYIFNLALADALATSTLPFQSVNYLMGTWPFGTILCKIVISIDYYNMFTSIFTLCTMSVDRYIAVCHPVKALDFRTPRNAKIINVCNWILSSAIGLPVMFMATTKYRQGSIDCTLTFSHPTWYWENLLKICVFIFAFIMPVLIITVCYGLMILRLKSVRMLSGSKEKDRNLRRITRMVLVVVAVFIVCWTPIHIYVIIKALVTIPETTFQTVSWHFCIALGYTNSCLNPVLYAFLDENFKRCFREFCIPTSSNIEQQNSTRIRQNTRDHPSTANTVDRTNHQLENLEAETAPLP
How it was run: as §1

Human opioid (ORL1) = target: T6, Human opioid (ORL1) (Homo sapiens, UniProt P41146); test: Radioligand binding, human opioid ORL1 membranes, FlashPlate, [125I]-Nociceptin; settings: compound at 10 μM, [125I]-Nociceptin
T6 construct: purchased Perkin Elmer Biosignal
T6 sequence (P41146 whole entry): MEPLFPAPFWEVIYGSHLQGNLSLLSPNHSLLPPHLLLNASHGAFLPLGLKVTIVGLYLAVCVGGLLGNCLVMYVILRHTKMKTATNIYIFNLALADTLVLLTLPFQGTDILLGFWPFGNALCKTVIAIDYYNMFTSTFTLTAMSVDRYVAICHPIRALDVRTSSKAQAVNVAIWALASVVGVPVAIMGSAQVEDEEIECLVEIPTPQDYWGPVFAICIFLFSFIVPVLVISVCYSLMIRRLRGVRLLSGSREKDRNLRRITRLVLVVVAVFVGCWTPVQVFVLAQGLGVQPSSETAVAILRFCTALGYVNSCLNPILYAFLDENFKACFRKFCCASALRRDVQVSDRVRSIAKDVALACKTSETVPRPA
How it was run: as §1

Human δ-opioid (DOP) = target: T7, Human δ-opioid (DOP) (Homo sapiens, UniProt P41143); test: Radioligand binding, human δ-opioid (DOP) membranes, FlashPlate, [3H]-Bremazocine; settings: compound at 10 μM, [3H]-Bremazocine
T7 construct: purchased Perkin Elmer Biosignal
T7 sequence (P41143 whole entry): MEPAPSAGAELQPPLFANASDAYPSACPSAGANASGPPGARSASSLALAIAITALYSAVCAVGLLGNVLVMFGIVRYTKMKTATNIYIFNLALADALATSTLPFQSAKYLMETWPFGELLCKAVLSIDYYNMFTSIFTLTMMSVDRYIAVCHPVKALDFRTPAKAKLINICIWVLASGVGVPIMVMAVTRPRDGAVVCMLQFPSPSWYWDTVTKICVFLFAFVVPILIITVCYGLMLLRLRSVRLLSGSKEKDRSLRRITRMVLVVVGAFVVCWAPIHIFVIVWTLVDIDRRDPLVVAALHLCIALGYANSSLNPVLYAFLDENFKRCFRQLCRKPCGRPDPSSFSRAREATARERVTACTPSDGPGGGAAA
How it was run: as §1

Human neurokinin (NK1) = target: T8, Human neurokinin (NK1) (Homo sapiens, UniProt P25103); test: Radioligand binding, human neurokinin NK1 membranes, filtration, [125I]-Substance P; settings: compound at 10 μM, [125I]-Substance P
T8 construct: purchased Perkin Elmer Biosignal
T8 sequence (P25103 whole entry): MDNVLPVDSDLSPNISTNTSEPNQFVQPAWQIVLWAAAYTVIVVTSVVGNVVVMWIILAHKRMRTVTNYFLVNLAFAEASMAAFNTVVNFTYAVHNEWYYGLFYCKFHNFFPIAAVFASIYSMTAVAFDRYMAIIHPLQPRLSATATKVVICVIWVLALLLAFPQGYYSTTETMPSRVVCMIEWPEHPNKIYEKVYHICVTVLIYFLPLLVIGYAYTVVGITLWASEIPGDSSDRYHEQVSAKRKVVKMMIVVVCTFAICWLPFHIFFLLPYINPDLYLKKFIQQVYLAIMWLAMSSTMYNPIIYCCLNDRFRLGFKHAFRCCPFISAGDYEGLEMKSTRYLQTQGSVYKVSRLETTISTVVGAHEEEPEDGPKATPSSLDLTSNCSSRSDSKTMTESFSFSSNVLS
How it was run: (§2)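 Percent inhibition of radioligand binding measured on recombinant human membranes: NK1 with [125I]-Substance P, KOP with [3H]-Diprenorphine. Incubation 1 h at room temperature, then harvest onto 0.3% PEI-soaked filters, cold Tris-HCl pH 7.4 washes and scintillation counting; non-specific binding from reference ligand wells.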

Human Melanocortin (MC3) = target: T9, Human Melanocortin (MC3) (Homo sapiens, UniProt P41968); test: Radioligand binding, human melanocortin MC3 membranes, FlashPlate, [125I]-NDP-αMSH; settings: compound at 10 μM, [125I]-NDP-αMSH
T9 construct: purchased Perkin Elmer Biosignal
T9 sequence (P41968 whole entry): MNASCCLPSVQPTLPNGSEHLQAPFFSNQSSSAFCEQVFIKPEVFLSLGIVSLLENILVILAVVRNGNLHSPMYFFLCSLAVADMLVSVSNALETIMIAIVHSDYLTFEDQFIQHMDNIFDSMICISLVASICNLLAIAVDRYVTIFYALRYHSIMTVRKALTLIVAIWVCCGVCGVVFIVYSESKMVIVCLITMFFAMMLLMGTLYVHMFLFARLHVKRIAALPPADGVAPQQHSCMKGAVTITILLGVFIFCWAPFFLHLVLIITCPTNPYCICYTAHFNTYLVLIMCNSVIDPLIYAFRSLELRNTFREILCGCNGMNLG
How it was run: as §1

Human melanocortin (MC5) = target: T10, Human melanocortin (MC5) (Homo sapiens, UniProt P33032); test: Radioligand binding, human melanocortin MC5 membranes, FlashPlate, [125I]-NDP-αMSH; settings: compound at 10 μM, [125I]-NDP-αMSH
T10 construct: purchased Perkin Elmer Biosignal
T10 sequence (P33032 whole entry): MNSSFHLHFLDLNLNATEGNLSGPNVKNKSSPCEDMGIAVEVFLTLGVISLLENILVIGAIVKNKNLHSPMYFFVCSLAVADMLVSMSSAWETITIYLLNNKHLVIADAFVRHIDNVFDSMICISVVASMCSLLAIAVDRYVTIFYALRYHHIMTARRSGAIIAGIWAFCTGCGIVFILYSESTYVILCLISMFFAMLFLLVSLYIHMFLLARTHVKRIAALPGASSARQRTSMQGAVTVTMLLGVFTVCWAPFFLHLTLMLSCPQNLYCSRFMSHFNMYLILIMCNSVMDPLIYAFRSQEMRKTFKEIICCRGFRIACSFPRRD
How it was run: as §1

Human κ-Opioid (KOP) = target: T11, Human κ-Opioid (KOP) (Homo sapiens, UniProt P41145); test: Radioligand binding, human κ-opioid (KOP) membranes, filtration, [3H]-Diprenorphine; settings: compound at 10 μM, [3H]-Diprenorphine
T11 construct: purchased Perkin Elmer Biosignal
T11 sequence (P41145 whole entry): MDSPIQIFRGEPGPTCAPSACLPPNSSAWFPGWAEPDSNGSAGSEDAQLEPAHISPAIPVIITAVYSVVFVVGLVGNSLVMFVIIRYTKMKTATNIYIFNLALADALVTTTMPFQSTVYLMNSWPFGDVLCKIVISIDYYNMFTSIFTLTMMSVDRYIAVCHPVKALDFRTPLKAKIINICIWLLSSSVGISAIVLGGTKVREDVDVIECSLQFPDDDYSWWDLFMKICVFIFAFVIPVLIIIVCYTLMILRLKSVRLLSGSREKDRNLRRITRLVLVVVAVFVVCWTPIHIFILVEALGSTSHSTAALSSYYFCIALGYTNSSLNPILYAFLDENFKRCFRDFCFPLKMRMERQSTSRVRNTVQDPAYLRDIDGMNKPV
How it was run: as §2

SMILES	A9: inhibition of radioligand binding ([1]; FlashPlate)	A11: inhibition of radioligand binding (Mouse urotensin (mUR2); FlashPlate)	A6: inhibition of radioligand binding ([2]; [125I]-S36057, FlashPlate)	A4: inhibition of radioligand binding (Human Melanocortin (MC4); FlashPlate)	A7: inhibition of radioligand binding (Human μ-opioid (MOP); FlashPlate)	A10: inhibition of radioligand binding (Human opioid (ORL1); FlashPlate)	A1: inhibition of radioligand binding (Human δ-opioid (DOP); FlashPlate)	A8: inhibition of radioligand binding (Human neurokinin (NK1); filtration)	A3: inhibition of radioligand binding (Human Melanocortin (MC3); FlashPlate)	A5: inhibition of radioligand binding (Human melanocortin (MC5); FlashPlate)	A2: inhibition of radioligand binding (Human κ-Opioid (KOP); filtration)	A11: inhibition of radioligand binding, mouse urotensin (mUR2) (Mouse urotensin (mUR2))	A6: inhibition of radioligand binding, human melanin-concentrating hormone (MCH1) [2]	A4: inhibition of radioligand binding, human melanocortin (MC4) (Human Melanocortin (MC4))	A7: inhibition of radioligand binding, human μ-opioid (MOP) (Human μ-opioid (MOP))	A10: inhibition of radioligand binding, human opioid (ORL1) (Human opioid (ORL1))	A1: inhibition of radioligand binding, human δ-opioid (DOP) (Human δ-opioid (DOP))	A8: inhibition of radioligand binding, human neurokinin (NK1) (Human neurokinin (NK1))	A3: inhibition of radioligand binding, human melanocortin (MC3) (Human Melanocortin (MC3))	A5: inhibition of radioligand binding, human melanocortin (MC5) (Human melanocortin (MC5))	other results
COCC1OC(OCc2ccccc2)C(NC(=O)CCN)C(OCc2ccc3ccccc3c2)C1O (stereo not shown) [compound 190]	− (“−” indicates less than 50% inhibition at 10 μM)	− (“−” indicates less than 50% inhibition at 10 μM)	− (“−” indicates less than 50% inhibition at 10 μM)	− (“−” indicates less than 50% inhibition at 10 μM)	− (“−” indicates less than 50% inhibition at 10 μM)	− (“−” indicates less than 50% inhibition at 10 μM)	− (“−” indicates less than 50% inhibition at 10 μM)	+ (“+” indicates greater than 50% inhibition at 10 μM)	− (“−” indicates less than 50% inhibition at 10 μM)	+ (“+” indicates greater than 50% inhibition at 10 μM)	− (“−” indicates less than 50% inhibition at 10 μM)										
COCC1OC(OCc2ccc(Cl)cc2)C(NC(=O)CCNC(=N)N)C(OCc2ccccc2)C1O (stereo not shown) [compound 196]	− (“−” indicates less than 50% inhibition at 10 μM)	− (“−” indicates less than 50% inhibition at 10 μM)	− (“−” indicates less than 50% inhibition at 10 μM)	− (“−” indicates less than 50% inhibition at 10 μM)	− (“−” indicates less than 50% inhibition at 10 μM)	− (“−” indicates less than 50% inhibition at 10 μM)	+ (“+” indicates greater than 50% inhibition at 10 μM)	+ (“+” indicates greater than 50% inhibition at 10 μM)	− (“−” indicates less than 50% inhibition at 10 μM)	− (“−” indicates less than 50% inhibition at 10 μM)	− (“−” indicates less than 50% inhibition at 10 μM)										
CSC1O[C@H](COCc2ccc3ccccc3c2)[C@@H](O)[C@@H](OCc2ccc(-c3ccccc3)cc2)[C@H]1NC(=O)CN (stereo partly shown) [compound 295]												− (“−” indicates less than 50% inhibition at 10 μM)	− (“−” indicates less than 50% inhibition at 10 μM)	− (“−” indicates less than 50% inhibition at 10 μM)	− (“−” indicates less than 50% inhibition at 10 μM)	− (“−” indicates less than 50% inhibition at 10 μM)	− (“−” indicates less than 50% inhibition at 10 μM)	+ (“+” indicates greater than 50% inhibition at 10 μM)	− (“−” indicates less than 50% inhibition at 10 μM)	− (“−” indicates less than 50% inhibition at 10 μM)	A9: inhibition of radioligand binding, human neuropeptide Y (NPY-Y1) [1]: − (“−” indicates less than 50% inhibition at 10 μM); A2: inhibition of radioligand binding, human κ-opioid (KOP) (Human κ-Opioid (KOP)): − (“−” indicates less than 50% inhibition at 10 μM)
N=C(N)NCC(=O)N[C@H]1C(OCc2ccc(Cl)cc2)O[C@H](COCc2ccc3ccccc3c2)[C@@H](O)[C@@H]1OCc1ccc2ccccc2c1 (stereo partly shown) [compound 513]												− (“−” indicates less than 50% inhibition at 10 μM)	+ (“+” indicates greater than 50% inhibition at 10 μM)	+ (“+” indicates greater than 50% inhibition at 10 μM)	+ (“+” indicates greater than 50% inhibition at 10 μM)	+ (“+” indicates greater than 50% inhibition at 10 μM)	− (“−” indicates less than 50% inhibition at 10 μM)	+ (“+” indicates greater than 50% inhibition at 10 μM)	+ (“+” indicates greater than 50% inhibition at 10 μM)	+ (“+” indicates greater than 50% inhibition at 10 μM)	A9: inhibition of radioligand binding, human neuropeptide Y (NPY-Y1) ([1]; 10 µM): + (“+” indicates greater than 50% inhibition at 10 μM); A2: inhibition of radioligand binding, human κ-opioid (KOP) (Human κ-Opioid (KOP); 10 µM): + (“+” indicates greater than 50% inhibition at 10 μM)
N=C(N)NCCC(=O)NC1C(OCc2ccc(-c3ccccc3)cc2)OC(COCc2ccc(Cl)cc2)C(O)C1OCc1ccc(-c2ccccc2)cc1 (stereo not shown) [compound 416]																					A9: inhibition of radioligand binding ([1]; human NPY-Y1 membranes): − (“−” indicates less than 50% inhibition at 10 μM); A11: inhibition of radioligand binding (Mouse urotensin (mUR2); mouse mUR2 membranes): − (“−” indicates less than 50% inhibition at 10 μM); A6: inhibition of radioligand binding ([2]; [125I]-S36057, human MCH1 membranes): + (“+” indicates greater than 50% inhibition at 10 μM); A4: inhibition of radioligand binding (Human Melanocortin (MC4); human MC4 membranes): + (“+” indicates greater than 50% inhibition at 10 μM); A7: inhibition of radioligand binding (Human μ-opioid (MOP); human MOP membranes): − (“−” indicates less than 50% inhibition at 10 μM); A10: inhibition of radioligand binding (Human opioid (ORL1); human ORL1 membranes): + (“+” indicates greater than 50% inhibition at 10 μM); A1: inhibition of radioligand binding (Human δ-opioid (DOP); human DOP membranes): − (“−” indicates less than 50% inhibition at 10 μM); A8: inhibition of radioligand binding (Human neurokinin (NK1); human NK1 membranes): + (“+” indicates greater than 50% inhibition at 10 μM); A3: inhibition of radioligand binding (Human Melanocortin (MC3); human MC3 membranes): + (“+” indicates greater than 50% inhibition at 10 μM); A5: inhibition of radioligand binding (Human melanocortin (MC5); human MC5 membranes): + (“+” indicates greater than 50% inhibition at 10 μM); A2: inhibition of radioligand binding (Human κ-Opioid (KOP); human KOP membranes): − (“−” indicates less than 50% inhibition at 10 μM)
